Test results published in paper doi:10.1101/2023.11.24.568596v1 (biorxiv, 2023).
Blank lines part the entries; values can stand above or below the molecule they belong to.

What was measured:
Settings in all cases: binder
STLK3 = STLK3 (Homo sapiens, UniProt Q9UEW8)
ULK3 = molecular target: T1, ULK3 (Homo sapiens, UniProt Q6PHR2)
T1 sequence (Q6PHR2 1-472): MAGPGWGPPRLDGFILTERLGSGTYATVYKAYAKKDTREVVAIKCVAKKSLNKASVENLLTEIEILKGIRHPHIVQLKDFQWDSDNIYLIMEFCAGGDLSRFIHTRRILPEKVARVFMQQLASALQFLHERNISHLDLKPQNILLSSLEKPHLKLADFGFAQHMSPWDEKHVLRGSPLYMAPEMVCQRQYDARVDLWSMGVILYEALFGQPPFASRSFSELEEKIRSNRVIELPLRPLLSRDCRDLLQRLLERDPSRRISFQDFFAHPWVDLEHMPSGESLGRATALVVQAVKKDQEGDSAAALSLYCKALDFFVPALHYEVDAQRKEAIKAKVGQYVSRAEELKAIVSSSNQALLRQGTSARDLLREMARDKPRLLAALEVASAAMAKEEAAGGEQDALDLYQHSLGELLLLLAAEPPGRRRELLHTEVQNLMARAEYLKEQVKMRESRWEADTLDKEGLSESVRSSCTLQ

SRC = SRC (Homo sapiens, UniProt P12931)
Sequence of SRC (P12931 whole entry): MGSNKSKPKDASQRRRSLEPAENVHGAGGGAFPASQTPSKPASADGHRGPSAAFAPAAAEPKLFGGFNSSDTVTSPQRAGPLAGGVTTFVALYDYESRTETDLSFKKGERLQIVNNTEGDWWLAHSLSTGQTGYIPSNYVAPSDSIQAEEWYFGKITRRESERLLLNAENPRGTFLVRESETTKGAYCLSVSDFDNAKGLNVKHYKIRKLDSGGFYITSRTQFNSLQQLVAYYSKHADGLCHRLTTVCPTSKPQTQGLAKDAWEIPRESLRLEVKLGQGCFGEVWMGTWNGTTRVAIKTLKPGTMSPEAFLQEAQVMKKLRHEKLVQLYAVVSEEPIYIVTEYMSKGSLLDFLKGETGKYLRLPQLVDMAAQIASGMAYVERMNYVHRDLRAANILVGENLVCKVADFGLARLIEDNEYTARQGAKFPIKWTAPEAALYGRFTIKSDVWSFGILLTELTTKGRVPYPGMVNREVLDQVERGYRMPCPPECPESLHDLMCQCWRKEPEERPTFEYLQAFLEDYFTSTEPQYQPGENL

Wnk1 = Wnk1 (Homo sapiens, UniProt Q9H4A3)
Sequence of Wnk1 (Q9H4A3 whole entry): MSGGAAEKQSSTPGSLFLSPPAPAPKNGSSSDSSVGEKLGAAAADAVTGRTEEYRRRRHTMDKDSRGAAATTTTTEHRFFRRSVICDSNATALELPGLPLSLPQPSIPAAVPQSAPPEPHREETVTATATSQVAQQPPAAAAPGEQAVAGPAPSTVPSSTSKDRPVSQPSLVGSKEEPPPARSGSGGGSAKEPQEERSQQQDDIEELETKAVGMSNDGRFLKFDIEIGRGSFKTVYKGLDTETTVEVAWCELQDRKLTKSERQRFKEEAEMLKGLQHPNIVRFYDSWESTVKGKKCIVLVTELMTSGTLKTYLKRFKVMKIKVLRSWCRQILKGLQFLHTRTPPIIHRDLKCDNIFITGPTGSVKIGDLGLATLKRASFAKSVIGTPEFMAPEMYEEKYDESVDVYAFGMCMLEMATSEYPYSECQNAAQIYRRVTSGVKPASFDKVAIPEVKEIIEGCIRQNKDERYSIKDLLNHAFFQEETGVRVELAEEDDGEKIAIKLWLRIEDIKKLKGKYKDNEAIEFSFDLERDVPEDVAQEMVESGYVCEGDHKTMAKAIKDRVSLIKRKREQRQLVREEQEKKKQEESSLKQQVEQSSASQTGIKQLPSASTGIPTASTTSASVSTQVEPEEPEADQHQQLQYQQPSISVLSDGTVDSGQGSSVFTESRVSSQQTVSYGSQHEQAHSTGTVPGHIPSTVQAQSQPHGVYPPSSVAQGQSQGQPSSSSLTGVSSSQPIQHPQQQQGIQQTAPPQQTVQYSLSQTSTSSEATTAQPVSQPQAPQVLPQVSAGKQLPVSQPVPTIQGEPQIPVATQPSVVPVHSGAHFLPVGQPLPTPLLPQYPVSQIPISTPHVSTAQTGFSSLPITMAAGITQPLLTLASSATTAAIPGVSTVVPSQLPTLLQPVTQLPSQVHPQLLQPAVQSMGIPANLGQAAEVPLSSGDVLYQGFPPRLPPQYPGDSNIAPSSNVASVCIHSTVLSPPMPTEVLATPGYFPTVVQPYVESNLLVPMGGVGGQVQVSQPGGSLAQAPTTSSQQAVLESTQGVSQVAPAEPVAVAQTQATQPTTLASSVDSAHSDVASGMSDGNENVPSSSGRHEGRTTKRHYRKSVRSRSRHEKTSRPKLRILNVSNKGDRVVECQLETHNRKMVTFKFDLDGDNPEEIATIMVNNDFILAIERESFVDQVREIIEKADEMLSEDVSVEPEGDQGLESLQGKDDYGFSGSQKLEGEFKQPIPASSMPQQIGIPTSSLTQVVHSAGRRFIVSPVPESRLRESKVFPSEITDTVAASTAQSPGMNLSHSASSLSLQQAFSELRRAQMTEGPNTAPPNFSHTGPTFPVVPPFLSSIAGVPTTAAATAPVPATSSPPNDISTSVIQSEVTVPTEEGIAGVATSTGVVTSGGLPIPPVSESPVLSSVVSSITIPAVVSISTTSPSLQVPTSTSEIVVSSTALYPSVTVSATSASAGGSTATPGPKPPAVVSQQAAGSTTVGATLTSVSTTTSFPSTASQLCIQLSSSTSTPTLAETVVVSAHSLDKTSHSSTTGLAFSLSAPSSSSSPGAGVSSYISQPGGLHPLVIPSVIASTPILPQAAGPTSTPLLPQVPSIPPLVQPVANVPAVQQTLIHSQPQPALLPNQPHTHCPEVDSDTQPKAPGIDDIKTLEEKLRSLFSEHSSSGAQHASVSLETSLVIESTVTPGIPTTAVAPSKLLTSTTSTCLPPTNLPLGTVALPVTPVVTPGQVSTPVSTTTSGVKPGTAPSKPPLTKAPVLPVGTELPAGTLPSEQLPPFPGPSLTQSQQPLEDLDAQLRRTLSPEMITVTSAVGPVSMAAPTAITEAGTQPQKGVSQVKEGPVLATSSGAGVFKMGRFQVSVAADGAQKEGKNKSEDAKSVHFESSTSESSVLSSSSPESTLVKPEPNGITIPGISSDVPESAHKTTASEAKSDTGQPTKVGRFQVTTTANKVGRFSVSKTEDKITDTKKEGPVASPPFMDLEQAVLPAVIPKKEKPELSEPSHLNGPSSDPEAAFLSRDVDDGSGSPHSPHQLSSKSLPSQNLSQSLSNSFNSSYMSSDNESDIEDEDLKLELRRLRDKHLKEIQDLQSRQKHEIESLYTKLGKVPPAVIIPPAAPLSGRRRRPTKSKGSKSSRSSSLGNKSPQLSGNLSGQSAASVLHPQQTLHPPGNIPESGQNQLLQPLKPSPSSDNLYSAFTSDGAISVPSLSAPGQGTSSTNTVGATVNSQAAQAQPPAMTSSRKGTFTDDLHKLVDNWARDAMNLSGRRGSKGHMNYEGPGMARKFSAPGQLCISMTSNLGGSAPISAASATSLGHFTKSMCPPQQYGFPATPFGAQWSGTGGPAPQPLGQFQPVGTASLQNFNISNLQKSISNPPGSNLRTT

SRPK1 = SRPK1 (Homo sapiens, UniProt Q96SB4)
Sequence of SRPK1 (Q96SB4 whole entry): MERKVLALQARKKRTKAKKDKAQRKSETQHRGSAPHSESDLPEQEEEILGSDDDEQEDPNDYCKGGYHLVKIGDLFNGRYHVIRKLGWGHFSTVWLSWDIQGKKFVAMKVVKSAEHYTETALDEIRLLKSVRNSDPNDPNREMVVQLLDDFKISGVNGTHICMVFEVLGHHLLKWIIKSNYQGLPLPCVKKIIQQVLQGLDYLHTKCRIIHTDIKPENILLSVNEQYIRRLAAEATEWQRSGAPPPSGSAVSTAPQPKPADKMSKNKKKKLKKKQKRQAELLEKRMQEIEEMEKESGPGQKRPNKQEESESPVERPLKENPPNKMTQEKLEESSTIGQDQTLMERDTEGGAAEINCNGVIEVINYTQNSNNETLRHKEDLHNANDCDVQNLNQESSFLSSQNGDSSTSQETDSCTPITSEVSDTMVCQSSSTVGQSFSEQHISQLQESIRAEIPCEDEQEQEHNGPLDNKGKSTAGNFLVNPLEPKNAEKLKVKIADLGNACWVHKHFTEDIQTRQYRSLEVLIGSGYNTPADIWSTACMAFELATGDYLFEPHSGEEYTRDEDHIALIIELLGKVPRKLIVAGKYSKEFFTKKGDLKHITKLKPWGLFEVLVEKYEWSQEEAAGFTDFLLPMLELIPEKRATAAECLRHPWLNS

VRK1 = molecular target: T2, VRK1 (Homo sapiens, UniProt Q99986)
T2 sequence (Q99986 1-396): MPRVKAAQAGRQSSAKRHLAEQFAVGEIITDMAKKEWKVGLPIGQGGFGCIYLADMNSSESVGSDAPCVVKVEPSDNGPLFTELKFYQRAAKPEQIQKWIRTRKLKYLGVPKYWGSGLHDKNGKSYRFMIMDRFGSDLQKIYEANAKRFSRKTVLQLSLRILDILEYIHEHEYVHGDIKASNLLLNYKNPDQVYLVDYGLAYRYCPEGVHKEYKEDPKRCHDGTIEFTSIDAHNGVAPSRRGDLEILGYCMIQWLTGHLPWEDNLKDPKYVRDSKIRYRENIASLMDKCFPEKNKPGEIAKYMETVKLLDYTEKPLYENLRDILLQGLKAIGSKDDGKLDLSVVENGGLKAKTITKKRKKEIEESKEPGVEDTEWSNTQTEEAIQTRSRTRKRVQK

TTK = molecular target: T3, TTK (Homo sapiens, UniProt P33981)
T3 sequence (P33981 1-857): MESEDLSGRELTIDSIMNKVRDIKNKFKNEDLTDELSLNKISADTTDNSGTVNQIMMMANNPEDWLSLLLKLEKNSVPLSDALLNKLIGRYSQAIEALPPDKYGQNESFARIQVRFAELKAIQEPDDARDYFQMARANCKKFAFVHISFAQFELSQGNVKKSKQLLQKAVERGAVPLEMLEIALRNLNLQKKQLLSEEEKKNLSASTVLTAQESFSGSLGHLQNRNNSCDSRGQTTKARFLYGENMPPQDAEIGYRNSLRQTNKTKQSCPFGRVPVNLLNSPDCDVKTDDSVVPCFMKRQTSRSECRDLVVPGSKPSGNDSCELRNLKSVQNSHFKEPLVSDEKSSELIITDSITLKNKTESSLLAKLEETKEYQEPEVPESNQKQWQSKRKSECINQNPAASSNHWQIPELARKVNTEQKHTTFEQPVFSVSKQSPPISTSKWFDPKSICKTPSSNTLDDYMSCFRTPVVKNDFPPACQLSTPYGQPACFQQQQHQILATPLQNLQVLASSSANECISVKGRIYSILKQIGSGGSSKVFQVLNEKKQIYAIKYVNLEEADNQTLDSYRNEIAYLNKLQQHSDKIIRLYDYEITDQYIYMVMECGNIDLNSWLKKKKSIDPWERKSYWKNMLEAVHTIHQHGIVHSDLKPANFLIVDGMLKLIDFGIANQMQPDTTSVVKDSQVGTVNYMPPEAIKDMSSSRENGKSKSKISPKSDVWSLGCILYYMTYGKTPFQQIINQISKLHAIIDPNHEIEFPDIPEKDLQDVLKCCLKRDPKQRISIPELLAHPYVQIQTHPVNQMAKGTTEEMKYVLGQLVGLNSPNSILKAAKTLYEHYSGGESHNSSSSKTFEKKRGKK

SLK = SLK (Homo sapiens, UniProt Q9H2G2)
Sequence of SLK (Q9H2G2 whole entry): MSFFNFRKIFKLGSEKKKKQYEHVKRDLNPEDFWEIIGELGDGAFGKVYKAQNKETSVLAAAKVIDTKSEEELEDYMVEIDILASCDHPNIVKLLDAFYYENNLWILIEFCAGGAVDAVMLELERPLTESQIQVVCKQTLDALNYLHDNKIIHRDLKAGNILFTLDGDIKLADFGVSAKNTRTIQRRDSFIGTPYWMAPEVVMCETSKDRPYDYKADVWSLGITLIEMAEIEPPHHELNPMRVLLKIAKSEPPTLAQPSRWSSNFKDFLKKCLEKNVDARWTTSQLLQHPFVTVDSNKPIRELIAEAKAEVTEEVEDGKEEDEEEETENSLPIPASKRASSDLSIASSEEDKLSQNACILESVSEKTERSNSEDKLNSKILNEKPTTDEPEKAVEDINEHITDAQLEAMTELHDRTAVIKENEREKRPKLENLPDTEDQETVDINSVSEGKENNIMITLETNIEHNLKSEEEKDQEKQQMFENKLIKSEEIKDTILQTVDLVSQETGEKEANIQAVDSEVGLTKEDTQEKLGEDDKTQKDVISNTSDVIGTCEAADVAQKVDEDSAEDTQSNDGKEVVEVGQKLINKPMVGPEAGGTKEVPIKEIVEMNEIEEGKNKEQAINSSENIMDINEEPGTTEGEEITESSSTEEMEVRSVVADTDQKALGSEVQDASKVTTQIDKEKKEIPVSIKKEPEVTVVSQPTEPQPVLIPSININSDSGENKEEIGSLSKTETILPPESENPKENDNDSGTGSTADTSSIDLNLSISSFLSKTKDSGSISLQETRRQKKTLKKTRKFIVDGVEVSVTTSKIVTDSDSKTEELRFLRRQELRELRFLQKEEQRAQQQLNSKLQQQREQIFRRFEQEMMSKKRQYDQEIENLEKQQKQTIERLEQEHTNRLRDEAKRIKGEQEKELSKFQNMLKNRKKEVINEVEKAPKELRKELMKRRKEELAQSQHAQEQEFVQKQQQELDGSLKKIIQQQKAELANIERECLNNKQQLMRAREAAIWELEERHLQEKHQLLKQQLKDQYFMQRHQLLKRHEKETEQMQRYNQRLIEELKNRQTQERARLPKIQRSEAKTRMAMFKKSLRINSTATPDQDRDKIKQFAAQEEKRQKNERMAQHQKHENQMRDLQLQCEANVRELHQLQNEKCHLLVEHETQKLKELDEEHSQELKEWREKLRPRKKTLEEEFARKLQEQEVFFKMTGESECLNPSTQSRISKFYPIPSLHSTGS

MST2 = molecular target: T4, MST2 (Homo sapiens, UniProt Q13188)
T4 sequence (Q13188 1-491): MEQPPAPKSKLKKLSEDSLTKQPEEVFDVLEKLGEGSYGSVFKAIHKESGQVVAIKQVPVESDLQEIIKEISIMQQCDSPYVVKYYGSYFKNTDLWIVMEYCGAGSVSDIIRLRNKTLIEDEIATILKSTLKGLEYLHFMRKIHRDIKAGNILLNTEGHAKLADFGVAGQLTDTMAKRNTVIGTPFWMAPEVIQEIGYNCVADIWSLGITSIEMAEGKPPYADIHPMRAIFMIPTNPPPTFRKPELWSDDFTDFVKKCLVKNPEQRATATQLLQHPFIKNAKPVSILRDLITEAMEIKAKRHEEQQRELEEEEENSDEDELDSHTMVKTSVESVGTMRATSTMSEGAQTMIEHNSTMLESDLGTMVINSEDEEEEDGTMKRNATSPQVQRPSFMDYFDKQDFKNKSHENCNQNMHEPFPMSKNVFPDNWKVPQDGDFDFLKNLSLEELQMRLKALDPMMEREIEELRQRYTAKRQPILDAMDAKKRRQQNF

ΔTm 29 (STLK3): 8.8 °C | ΔTm 29 (ULK3): 5.8 °C | ΔTm 29 (SRC): 1.9 °C | ΔTm 29 (Wnk1): 0.6 °C | ΔTm 29 (SRPK1): 0.1 °C | ΔTm 29 (VRK1): 0.4 °C | ΔTm 29 (TTK): -0.4 °C | ΔTm 29 (SLK): 3.5 °C | dTm MST2 (MST2): 5.2 °C
Structure (SMILES): Cc1cccc(-c2ccc(-c3cc4cnc(NCCCN5CCNCC5)nc4n(CCCCN)c3=O)c(Cl)c2)n1 [compound 29, 8-(4-Aminobutyl)-6-(2-chloro-4-(6-methylpyridin-2-yl)phenyl)-2-((3-(piperazin-1-yl)propyl)amino)pyrido[2,3-d]pyrimidin-7(8H)-one]

ΔTm 30 (STLK3): 16.6 °C | ΔTm 30 (ULK3): 14.9 °C | ΔTm 30 (SRC): 4.6 °C | ΔTm 30 (Wnk1): 4.8 °C | ΔTm 30 (SRPK1): 0.0 °C | ΔTm 30 (VRK1): 0.3 °C | ΔTm 30 (TTK): 5.6 °C | ΔTm 30 (SLK): 8.6 °C | dTm MST2 (MST2): 15.8 °C
Structure (SMILES): Cc1cccc(-c2ccc(-c3cc4cnc(Nc5ccc(CCCO)cc5)nc4n(CCCCN)c3=O)c(Cl)c2)n1 [compound 30, 8-(4-Aminobutyl)-6-(2-chloro-4-(6-methylpyridin-2-yl)phenyl)-2-((4-(3-hydroxypropyl)phenyl)amino)pyrido[2,3-d]pyrimidin-7(8H)-one]

ΔTm 31 (STLK3): 16.6 °C | ΔTm 31 (ULK3): 14.5 °C | ΔTm 31 (SRC): 5.0 °C | ΔTm 31 (Wnk1): 3.1 °C | ΔTm 31 (SRPK1): 0.3 °C | ΔTm 31 (VRK1): 0.9 °C | ΔTm 31 (TTK): 5.1 °C | ΔTm 31 (SLK): 7.7 °C | dTm MST2 (MST2): 13.7 °C
Structure (SMILES): Cc1cccc(-c2ccc(-c3cc4cnc(Nc5ccc(O)cc5)nc4n(CCCCN)c3=O)c(Cl)c2)n1 [compound 31, 8-(4-Aminobutyl)-6-(2-chloro-4-(6-methylpyridin-2-yl)phenyl)-2-((4-hydroxyphenyl)amino) pyrido[2,3-d]pyrimidin-7(8H)-one]

ΔTm 32 (STLK3): 16.6 °C | ΔTm 32 (ULK3): 14.3 °C | ΔTm 32 (SRC): 5.1 °C | ΔTm 32 (Wnk1): 3.5 °C | ΔTm 32 (SRPK1): 0.4 °C | ΔTm 32 (VRK1): 0.8 °C | ΔTm 32 (TTK): 2.2 °C | ΔTm 32 (SLK): 7.8 °C | dTm MST2 (MST2): 13.2 °C
Structure (SMILES): Cc1cccc(-c2ccc(-c3cc4cnc(Nc5ccc(C)c(O)c5)nc4n(CCCCN)c3=O)c(Cl)c2)n1 [compound 32, 8-(4-Aminobutyl)-6-(2-chloro-4-(6-methylpyridin-2-yl)phenyl)-2-((3-hydroxy-4-methylphenyl)amino)pyrido[2,3-d]pyrimidin-7(8H)-one]
